# Molecular target: Glycogen synthase kinase-3 beta (Homo sapiens, UniProt P49841)
# Assay: GSK3beta kinase inhibitor potency, dose response, biochemical, luminescence, cell-free homogeneous, retest (AID 434954)
# Chain of Glycogen synthase kinase-3 beta (P49841 whole entry): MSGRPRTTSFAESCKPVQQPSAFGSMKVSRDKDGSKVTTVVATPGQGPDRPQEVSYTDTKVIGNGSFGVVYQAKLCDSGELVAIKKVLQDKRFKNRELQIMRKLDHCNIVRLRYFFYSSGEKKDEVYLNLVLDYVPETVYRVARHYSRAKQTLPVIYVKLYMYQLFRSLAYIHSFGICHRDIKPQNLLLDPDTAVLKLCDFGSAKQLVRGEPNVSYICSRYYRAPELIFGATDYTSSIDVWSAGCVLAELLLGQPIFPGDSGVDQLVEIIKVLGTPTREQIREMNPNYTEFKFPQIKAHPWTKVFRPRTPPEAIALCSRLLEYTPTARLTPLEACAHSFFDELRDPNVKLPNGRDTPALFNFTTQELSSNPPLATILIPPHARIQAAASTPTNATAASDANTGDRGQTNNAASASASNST
row,SMILES,EC50 [µM]
1,CN(C)c1ccc(/N=N/c2ccc(S(N)(=O)=O)cc2)cc1,> 300
2,c1ccc(CNc2nc(-c3cccnc3)nc3ccccc23)cc1,> 300
3,CN(C)Cc1ccc(-c2nc3cccc4c3n2CCNC4=O)cc1,27.5
4,Nc1nonc1-n1nnc(C(=O)N/N=C/c2ccncc2)c1CN1CCCCC1,0.181
5,CCN(CC)Cc1c(C(=O)N/N=C/c2ccncc2)nnn1-c1nonc1N,0.177
6,c1ccc(Nc2nc(NCCN3CCOCC3)nc(Nc3ccccc3)n2)cc1,> 300
7,COc1ccc(Nc2nc(NCCN3CCOCC3)nc(Nc3ccc(OC)cc3)n2)cc1,> 300
8,COC(=O)c1ccc(O)cc1,> 300
9,CC(=O)Nc1ccc(S(=O)(=O)c2cc(O)ccc2O)cc1,> 300
10,NS(=O)(=O)c1ccc(-c2ccc(/C=C3\NC(=S)NC3=O)o2)cc1,46.5
11,CCn1c(=O)c(C(=O)NNC(=O)c2ccccc2)c(O)c2ccccc21,> 300
12,CCCN(CCC)Cc1c(C(=O)NN=Cc2c[nH]c3ccccc23)nnn1-c1nonc1N,> 300
13,CC1Cc2cc(S(=O)(=O)N3CCN(c4ccccc4)CC3)ccc2N1C(=O)C1CC1 (stereo unspecified),> 300
14,Cc1ccc(C(=O)ON=C(N)c2ccccn2)c(C)c1,14.9
15,N#Cc1c(N)nc(C(C#N)C#N)c(C#N)c1-c1ccccc1,19.2
16,Fc1ccc(CSc2nnc(-c3ccccn3)o2)cc1,> 300
17,COc1ccccc1N1CCN(/N=C/c2ccc(Cl)c([N+](=O)[O-])c2)CC1,> 300
18,COc1ccc(CCNc2c(C=O)c(=O)[nH]c3ccccc23)cc1OC,> 300
19,CN(C)Cc1c(O)ccc2c(=O)c(-c3ccccc3)c(C(F)(F)F)oc12,> 300
20,O=C(Nc1ccccn1)Nc1ccccc1Cl,> 300
21,CN1CC(=O)Nc2ccc([N+](=O)[O-])cc2C1=O,> 300
22,COc1cccc(C(=O)NNC(=O)c2ccccc2)c1,> 300
23,O=C(NCCc1ccccc1)c1cccc(Br)c1,> 300
24,CCN1CCN(c2c(C=O)c(Cl)nc3ccc(OC)cc23)CC1,5.67

row,SMILES,EC50 [µM]
1,CC(=O)Oc1cc(C)cc2oc(=O)cc(-c3ccccc3)c12,> 300
2,O=c1cc(-c2ccccc2)c2c(O)cc(O)cc2o1,7.82
3,O=C1C(=O)N(c2ccccn2)C(c2ccc(Br)cc2)C1C(=O)c1ccc(Br)cc1 (stereo unspecified),> 300
4,Cc1cccc2cc3c(NC(=O)C(C)(C)C)nn(CC(C)C)c3nc12,> 300
5,COc1ccc2nc(C)cc(Nc3ccc(N4CCN(C)CC4)cc3)c2c1,> 300
6,COC(=O)c1ccc(CSc2nnc(-c3ccncc3)o2)cc1,> 300
7,CC1CCN(c2nc3c(N)ncnc3n2[C@@H]2O[C@H](CO)[C@@H](O)[C@H]2O)CC1,> 300
8,CCOc1ccc(-c2csc3[n+]2CC[N-]3)cc1[N+](=O)[O-],> 300
9,CCCc1c(C(=O)NN=Cc2ccncc2)nnn1-c1nonc1N,> 300
10,CCN(CC)CCNc1nc(SC)nc2sc3c(c12)CCN(C)C3,> 300
11,CCC(C)Nc1nc(N)c([N+](=O)[O-])c(NCc2ccccc2)n1 (stereo unspecified),9.62
12,COCCNc1nc(N)c([N+](=O)[O-])c(NC2CCCCC2)n1,5.35
13,COc1ccc(C(=O)c2sc(Nc3ccccc3F)nc2N)cc1,1.48
14,COc1ccc(Nc2nc(N)c([N+](=O)[O-])c(NC3CCCCC3)n2)cc1,> 300
15,CC(C)CCNc1nc(N)c([N+](=O)[O-])c(NC2CCCCC2)n1,> 300
16,COCCCNc1nc(N)c([N+](=O)[O-])c(NCc2ccccc2)n1,5.95
17,Nc1ncc(-c2ccccc2)c(-c2ccc(O)cc2O)n1,7.69
18,CSc1ncc(C(=O)Nc2ccccc2C)c(C)n1,> 300
19,COc1ccc(C(C)(C)C)cc1NS(=O)(=O)c1cccc2cccnc12,> 300
20,Cc1cc2nc(-c3cccnc3O)[nH]c2cc1C,8.16
21,COc1cc2ncnc(Nc3ccc4c(c3)OCO4)c2cc1OC,> 300
22,c1ccc(CCNCC2COc3ccccc3O2)cc1 (stereo unspecified),> 300
23,CC(NCC1COc2ccccc2O1)C1COc2ccccc2O1 (stereo unspecified),> 300
24,Cc1ccc([N+](=O)[O-])cc1/N=C1\C(=O)Nc2ccccc21,> 300

row,SMILES,EC50 [µM]
1,Cc1ccc(-c2nn(-c3ccccc3)cc2CO)cc1,> 300
2,COCCNc1nc(N)c([N+](=O)[O-])c(Nc2ccc(F)cc2)n1,> 300
3,CCOC(=O)c1c(-c2ccccc2)oc2ccc(OCC(=O)NNC(=O)CCCC(=O)O)cc12,> 300
4,COc1ccc(C(=O)c2coc3ccc(OC(C)=O)cc23)cc1,> 300
5,Cc1ccc(C)c(Nc2nc(-c3ccncc3)nc3ccccc23)c1,> 300
6,O=c1c(-c2ccccc2)c(-c2ccccc2)oc2cc(O)cc(O)c12,24.6
7,CC(=O)c1cccc(S(=O)(=O)NC2CCSc3ccccc32)c1 (stereo unspecified),> 300
8,COc1cccc(Nc2nc(-c3ccccc3)nc3ccccc23)c1,> 300
9,CC(C)N1CCc2c(sc(NC(=O)Cc3ccccc3)c2C(N)=O)C1,> 300
10,CN(c1ncnc(N)c1[N+](=O)[O-])C1CCCCC1,2.57
11,CCC(OCC(O)CN1CCCCC1)c1ccccc1 (stereo unspecified),> 300
12,CCC(=O)Nc1sc2c(c1C(N)=O)CCN(Cc1ccccc1)C2,> 300
13,Oc1cccc(Nc2nc(-c3ccccc3)nc3ccccc23)c1,> 300
14,CCCSCCCNC(=O)Cn1nc(CC)n2c(cc3c(OC)cccc32)c1=O,> 300
15,COc1cc(C(=O)OCC(=O)NC(N)=O)cc(CN2C(=O)c3ccccc3C2=O)c1OC,> 300
16,CN(C)Cc1c(C(=O)NN=Cc2ccncc2)nnn1-c1nonc1N,6.17
17,c1cncc(-c2nc(NCC3CCCO3)c3ccccc3n2)c1 (stereo unspecified),> 300
18,CCCN(CCC)Cc1c(C(=O)NN=Cc2cccs2)nnn1-c1nonc1N,60
19,CN(C)Cc1c(C(=O)NN=CCCc2ccccc2)nnn1-c1nonc1N,21.8
20,CCCN(CCC)Cc1c(C(=O)NN=Cc2ccco2)nnn1-c1nonc1N,> 300
21,Nc1nonc1-n1nnc(C(=O)NN=Cc2cccc(Cl)c2)c1CN1CCCC1,5.25
22,COCc1c(C(=O)NN=Cc2ccccn2)nnn1-c1nonc1N,> 300
23,COc1cccc(/C=C2/Sc3ccc(C(=O)NCCCN4CCCC4)cc3NC2=O)c1,2.82
24,O=C1Nc2cc(C(=O)NCC3CCCO3)ccc2S/C1=C/c1ccccc1F (stereo unspecified),> 300

row,SMILES,EC50 [µM]
1,COc1cccc2c1cc1c(=O)n(CC(=O)NCCCN3CCN(C)CC3)nc(C)n12,> 300
2,Cc1ccc2c(c1)N(C(=O)CCC(=O)NCc1ccccc1)CC(C)O2 (stereo unspecified),> 300
3,COC(=O)c1cc(S(=O)(=O)N2CCCC(C)C2)c[nH]1 (stereo unspecified),> 300
4,O=[N+]([O-])c1ccccc1S(=O)(=O)Nc1ccc(S(=O)(=O)Nc2nccs2)cc1,> 300
5,COc1ccc(CN(CC(=O)NCc2ccccc2)C(=O)CCC(=O)Nc2ccccn2)cc1,> 300
6,O=C(CN(Cc1ccccc1)C(=O)CCC(=O)Nc1ccccn1)NCc1ccc(F)cc1,58.8
7,CCCn1c(SCC(=O)Nc2ccccc2OC)nnc1-c1ccco1,> 300
8,COc1ccc(CNC(=O)CN(Cc2ccccc2)C(=O)CCC(=O)Nc2ccccn2)cc1,24.2
9,CCN(CC)Cc1c(C(=O)NN=Cc2ccccn2)nnn1-c1nonc1N,9.91
10,Cc1ccc(/C=C2/Sc3ccc(C(=O)NCCN4CCOCC4)cc3NC2=O)cc1,> 300
11,Cc1ccc2c(c1)cc1c(=O)n(CC(=O)NCCN3CCCC3)nc(C)n12,> 300
12,Cc1ccc2c(c1)COc1c3ccc(C(=O)O)cc3nn1-2,8.69
13,COc1ccc(CN(CC(=O)NCc2ccccc2)C(=O)CCC(=O)Nc2nccs2)cc1,> 300
14,CC1CCCCC1NS(=O)(=O)c1ccc2c(c1)CC(=O)N2C (stereo unspecified),> 300
15,CCOc1ccccc1C=NNC(=O)c1nnn(-c2nonc2N)c1CN1CCCCCC1,0.105
16,COc1ccc(OC)c(CCNC(=O)c2ccc3c(=O)[nH]c4c(C(=O)NC(C)C)sc(=S)n4c3c2)c1,> 300
17,COc1cccc2c1cc1c(=O)n(CC(=O)N3CCC(C)CC3)nc(C)n12,> 300
18,Cc1ccc(OCCN(C)C(=O)C2CCC(=O)N(CCCN3CCOCC3)C2)cc1 (stereo unspecified),> 300
19,CCn1c(COc2ccccc2)nnc1SCC(=O)NC1CC1,> 300
20,COc1cccc2cc(C(=O)OC(C)C(=O)c3ccc(C)cc3)c(=O)oc12 (stereo unspecified),> 300
21,CCCn1c(SCC(=O)Nc2ccc(Cl)cn2)nnc1C1CC1,24
22,C=CCn1c(SCC(=O)Nc2ccc(Cl)cn2)nnc1C1CC1,40
23,CCc1ccc(C=NNC(=O)c2nnn(-c3nonc3N)c2CN2CCOCC2)cc1,> 300
24,Nc1nonc1-n1nnc(C(=O)NN=Cc2ccccc2Cl)c1CN1CCOCC1,60.5

row,SMILES,EC50 [µM]
1,O=C(c1cccc(-c2ccccc2)c1)N1CC[C@@H](N2CCC(O)CC2)[C@H](O)C1,> 300
2,O=C(OCCCOC(=O)c1cc[n+]([O-])cc1)c1cc[n+]([O-])cc1,> 300
3,COc1ccc(CCN(C)C(=O)c2ccc(S(=O)(=O)Nc3ccccc3C)cc2)cc1OC,> 300
4,O=C(Nc1ccc2c(c1)OCO2)Nc1ccc(F)cc1F,> 300
5,Nc1nonc1-n1nnc(C(=O)NN=Cc2ccccc2F)c1-c1cccs1,14.4
6,CCCOc1ccc(-c2c(C(=O)NN=C(C)c3ccco3)nnn2-c2nonc2N)cc1,16.6
7,Cn1c(SCC(=O)NC2CCCCC2)nnc1-c1ccccn1,> 300
8,COc1cccc2cc(C(=O)NCc3ccc(C)cc3)c(=N)oc12,> 300
9,COc1ccc(C(=O)NC(=S)NC2CCCCC2)cc1,> 300
10,CC(=O)c1sc(NC(=O)CCNC(=O)c2ccco2)nc1-c1ccccc1,3.03
11,CC(=O)Nc1ccc(C(=O)OCCCOC(=O)c2ccc(NC(C)=O)cc2)cc1,> 300
12,CC(=O)c1ccc(NC(=O)NNS(=O)(=O)c2ccc([N+](=O)[O-])cc2)cc1,> 300
13,COc1ccc2c(C)c(CC(=O)N3CCN(C(=O)C4COc5ccccc5O4)CC3)c(=O)oc2c1 (stereo unspecified),> 300
14,O=C1CN=C(c2ccccc2)c2c(sc3c2CCCC3)N1,27.8
15,O=C(CSc1nnc(CNC(=O)c2cccc(C(F)(F)F)c2)o1)NC1CCCCC1,> 300
16,CC(=O)N1CCc2c(sc(NC(=O)CCS(=O)(=O)c3ccccc3)c2C(N)=O)C1,122
17,CS(=O)(=O)c1ccccc1-c1nnc(NC(=O)c2ccc3ncsc3c2)o1,> 300
18,Cn1cc(S(=O)(=O)NCc2ccc(F)cc2)c(=O)n(C)c1=O,> 300
19,Cc1cccn2c(=O)nc(SCC(=O)NC3CCCCC3)nc12,> 300
20,O=C(Nc1nnc(-c2cc(Cl)ccc2Cl)o1)c1ccco1,> 300
